Reference: patent publication US12358921B2, “Antiviral heterocyclic compounds” (priority 2022, dated 2025)

Experiments:
[1] = test system: HUMAN RSV-A (“LONG” STRAIN); assay: RSV-A assay (CPE, ATPlite) in Hep-2 cells; format: cell-based; settings: human respiratory syncytial virus, 120 h, MOI 0.1, 5-day incubation
Excerpt: Methods for RSV-A Assay Hep-2 cells, (originally derived from tumors grown in irradiated-cortisonised weanling rats that had been injected with epidermoid carcinoma tissue from the larynx of a person, but later found to be indistinguishable from HeLa cells by PCR DNA analysis), were used for the culturing of genotype A, “Long” strain RSV. Flasks were inoculated with RSV and viral stocks were collected once cytopathic effect (CPE) was greater than 90%. Viral stocks in 25% sucrose media were snap frozen using liquid nitrogen to increase viral stability. Viral stock titers were quantified by tissue culture infectious dose 50% (TCID50) using 8,000 cells per well and 3-fold viral dilutions across a 96-well plate, cultured for 4 days. Viral stock titers were also quantified by a plaque forming unit assay, as described elsewhere.
Following extensive parameter testing, the final assay is run as follows: Hep-2 cells are seeded into the inner 60 wells of a 96-well plate at 8,000 cells per well in a volume of 50 μL using Growth Media (DMEM without phenol red, 1% L-Glut, 1% Penn/Strep, 1% nonessential amino acids, 10% heat-inactivated FBS). 2-fold serial dilutions of control and test compounds are added to the wells in duplicate in a total volume of 25 μL. Viral stock is then added to the wells at a multiplicity of infection (MOI) of 0.1 in a volume of 25 μL, bringing the total volume of each well to 100 μL. The MOI is calculated using the PFU/mL, or TCID50 if unavailable. Each 96-well plate has a control column of 6 wells with cells and virus but no compound (negative control, max CPE), a column with cells but no compound or virus (positive control, minimum CPE), and a column with no cells or virus or compound (background plate/reagent control). The control wells with cells but no virus are given an additional 25 μL of growth media containing an equal quantity of sucrose as those wells receiving the viral stock in order to keep consistent in media and volume conditions. The outer wells of the plate are filled with 125 μL of moat media (DMEM, 1% Penn/Strep) to act as a thermal and evaporative moat around the test wells. Following a 5-day incubation period, the plates are read using ATPlite (50 uL added per well), which quantifies the amount of ATP (a measure of cell health) present in each well. Assay plates are read using the Envision luminometer. […] EC50 ranges are as follows: A<0.2 μM; B>0.2 μM.

hMPV A2 TN/94-49 = assay: HMPV antiviral assay Method 2 (LLC-MK2 cells with CP-100-356, ATP-Lite); format: cell-based; settings: hMPV A2 TN/94-49, LLC-MK2 cells, 4 μM CP-100-356, Method 2
Experimental: In vitro HMPV antiviral activity was evaluated using the clinical isolate A2 strain TN 94-49 (obtained from Dr. John Williams, Vanderbilt University, Tennessee) and LLC-MK2 cells (Millipore Sigma CB_85062804), an immortalized kidney epithelial cell line from Macaca mulatta. Compounds were resuspended in dimethyl sulfoxide (DMSO) at 10 mM, serially diluted and added to a 384-well source plate. Subsequently, the compounds were diluted and transferred onto 384-well assay plates using the Echo-650 automated liquid handling system (Beckman Coulter, Indiana). The test compounds were assessed in duplicate at a top concentration of 200 nM followed by 2.5-fold serial dilutions to give a total of 10 concentration points. DMSO control wells were also included on the assay plates and were either infected or not, acting as positive and negative controls. A2 TN 94-49 virus infections were performed in-suspension with LLC-MK2 cells. The cells were washed twice with PBS and removed from the cell-culture flask with 0.25% trypsin-EDTA (Thermo Fisher Scientific, MA). The trypsin-EDTA was inactivated by resuspending in 2% fetal bovine serum (FBS) and OptiMEM (ThermoFisher Scientific, MA) containing 1% antibiotic-antimycotic. Cells were pelleted by centrifuging for 5 minutes at 800 rpm, the supernatant was removed, and cells were re-suspended and washed in PBS plus 100 μg/mL CaCl2). This step was performed twice. Cells were then re-suspended in serum-free (SF)-OptiMEM containing 4 μg/mL TPCK-Trypsin (Sigma Aldrich, MO), 1% antibiotic-antimycotic (ThermoFisher Scientific, MA), 100 μg/mL CaCl2), and 4 μM of CP-100-356, a P-glycoprotein inhibitor. Cells were counted and seeded at a density of 5,000 cells/well, 12.5 μL/well. Virus infections were done at a multiplicity of infection (MOI) of 0.16 with 12.5 μL added per well. Virus infections were performed in infection media which contained SF-OptiMEM, 100 μg/mL CaCl2) and 1% antibiotic-antimycotic. HMPV viral stocks are suspended in infection media+5% glycerol, thus an equal volume of infection media+5% glycerol was added to uninfected wells to equalize the final % glycerol across all wells of the assay plate. The final concentration of TPCK-trypsin was 2 μg/mL. The final concentration of CP-100-356 was 2 μM. The assay plates were incubated at 37° C., 5% CO2 for 7 days. After 7 days incubation, 12.5 μL of ATP-Lite (PerkinElmer, MA) was added to each well and the raw luminescence values were determined using the Envision 2104 (Perkin Elmer, MA). The average of the raw luminescence values for the cells and virus only positive control wells was subtracted from all conditions tested and the percent cell health was determined by dividing these values by the average of the cells only negative control wells. EC50 values were then calculated by non-linear regression using a four-parameter curve logistic equation. The curve fit model employed was XLFit Dose Response One Site Model 200: y=(A+(B/(1+((x/C)^D)))), where A is the minimum y value, B is the maximum y value, C is the log EC50value, and D is the slope factor.

Molecule `COc1cc(C(=O)NC[C@@](O)(c2ccccc2)c2cc3c(c(-c4cccc(F)c4Cl)n2)OC[C@]3(C)C(N)=O)cc2cn(C3(F)CC3)nc12` [Example 368] has an EC50 [1] of under 200 nM and an EC50 (hMPV A2 TN/94-49) of under 200 nM.
Molecule `COc1cc(C(=O)NC[C@@](O)(c2ccncc2)c2cc3c(c(-c4cc(Cl)c(F)cc4F)n2)OC[C@]3(C)C(N)=O)cc2cn(C3CC3)nc12` [Example 152] has an EC50 [1] of under 200 nM and an EC50 (hMPV A2 TN/94-49) of under 200 nM.
Work on `COc1cc(C(=O)NC[C@@](O)(c2cccc(F)c2)c2cc3c(c(-c4ccc(C(C)(C)O)cc4)n2)OC[C@]3(C)C(N)=O)cc2cn(C3(F)CC3)nc12` [Example 397] yielded an EC50 [1] of over 200 nM and an EC50 (hMPV A2 TN/94-49) of over 200 nM.
For `COc1cc(C(=O)NC[C@@](O)(c2ccccc2)c2cc3c(c(-c4ccc(F)c(F)c4Cl)n2)OC[C@]3(C)C(N)=O)cc2cn(C3(F)CC3)nc12` [Example 370], the EC50 [1] was under 200 nM and the EC50 (hMPV A2 TN/94-49) was under 200 nM.
In the case of `COc1cc(C(=O)NC[C@](O)(c2cc3c(c(-c4cc(Cl)c(F)cc4F)n2)OC[C@]3(C)C(N)=O)c2nccn2C)cc2cn(C3CC3)nc12` [Example 464], the EC50 [1] is reported as over 200 nM and the EC50 (hMPV A2 TN/94-49) is reported as over 200 nM.
`COc1cc(C(=O)NC[C@@](O)(c2cccc(Cl)n2)c2cc3c(c(-c4cc(Cl)c(F)cc4F)n2)OC[C@]3(C)C(N)=O)cc2cn(C3CC3)nc12` [Example 489] showed an EC50 [1] of under 200 nM and an EC50 (hMPV A2 TN/94-49) of under 200 nM.
`COc1cc(C(=O)NC[C@@](O)(c2ccccc2)c2cc3c(c(-c4cc(C(F)F)c(F)cc4F)n2)OC[C@]3(C)C(N)=O)cc2cn(C(F)F)nc12` [Example 300] gave an EC50 [1] of under 200 nM and an EC50 (hMPV A2 TN/94-49) of under 200 nM.
Molecule `COc1cc(C(=O)NCC(O)(c2cc3c(c(-c4cc(Cl)c(F)cc4F)n2)OC[C@]3(C)C(N)=O)c2ccc(Cl)s2)cc2cn(C3CC3)nc12` (stereo partly drawn) [Example 472] has an EC50 [1] of under 200 nM and an EC50 (hMPV A2 TN/94-49) of over 200 nM.
In the case of `COc1cc(C(=O)NC[C@@](O)(c2cccc(F)n2)c2cc3c(c(-c4cc(Cl)c(F)cc4F)n2)OC[C@]3(C)C(N)=O)cc2cn(C3(F)CC3)nc12` [Example 204], the EC50 [1] is reported as under 200 nM and the EC50 (hMPV A2 TN/94-49) is reported as under 200 nM.
Work on `COc1cc([C@](O)(CNC(=O)c2cc(OC)c3nn(C4CC4)cc3c2)c2cc3c(c(-c4cccc(Cl)c4Cl)n2)OC[C@]3(C)C(N)=O)cc(OC)n1` [Example 497] yielded an EC50 [1] of under 200 nM and an EC50 (hMPV A2 TN/94-49) of under 200 nM.
With `COc1cc(C(=O)NC[C@@](O)(c2ccccc2)c2cc3c(c(-c4cc(Cl)c(F)cc4F)n2)OC[C@]3(C)C(N)=O)cc2oc(N)nc12` [Example 237] the EC50 [1] was under 200 nM and the EC50 (hMPV A2 TN/94-49) was under 200 nM.
`COc1cc(C(=O)NC[C@@](O)(c2cccc(F)c2)c2cc3c(c(-c4cccc(Cl)c4Cl)n2)OC[C@]3(C)C(N)=O)cn2cc(C3CC3)nc12` [Example 337] gave an EC50 [1] of under 200 nM and an EC50 (hMPV A2 TN/94-49) of under 200 nM.
`COc1cc(C(=O)NC[C@@](O)(c2cnccn2)c2cc3c(c(-c4cc(Cl)c(F)cc4F)n2)OC[C@]3(C)C(N)=O)cc2cn(C3CC3)nc12` [Example 487] showed an EC50 [1] of under 200 nM and an EC50 (hMPV A2 TN/94-49) of under 200 nM.
Molecule `C[C@]1(C(N)=O)COc2c1cc([C@@](O)(CNC(=O)c1ccc3nc(C4(F)CC4)oc3c1)c1ccccc1)nc2-c1cc(Cl)c(F)cc1F` [Example 219] has an EC50 [1] of under 200 nM and an EC50 (hMPV A2 TN/94-49) of under 200 nM.
`COc1cc(C(=O)NC[C@@](O)(c2ccccc2)c2cc3c(c(-c4cc(F)c(F)cc4F)n2)OC[C@]3(C)C(N)=O)cc2oc(C3CC3)nc12` [Example 195] was tested, and the EC50 [1] was under 200 nM and the EC50 (hMPV A2 TN/94-49) was under 200 nM.
